What was measured:
Format in all cases: in vivo
kochia (Kochia scoparia) [1] = assay: Test A greenhouse herbicide test, pre- and postemergence
Method in brief: (§1)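 Seeds in loam–sand blend received a preemergence directed soil spray; plants at 2–10 cm, one- to two-leaf stage, received postemergence sprays. Compounds in a non-phytotoxic solvent with surfactant. After about 10 d in a greenhouse, injury rated visually versus untreated controls on a 0–100 scale (100 = complete control).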

corn (Zea mays) = assay: as above; conditions: Postemergence; for Plant response rating, Corn: 125 g ai/ha; for Corn plant response rating: 0 to 100 scale, 0 is no effect, 100 is complete control
Method in brief: as §1

[2] = test system: wheat (Triticum aestivum); assay: as above; conditions: Postemergence; for Plant response rating, Wheat: 125 g ai/ha, 0 to 100 scale where 0 is no effect and 100 is complete control; for Wheat plant response rating: 0 to 100 scale, 0 is no effect, 100 is complete control
Method in brief: as §1

[3] = test system: barnyardgrass (Echinochloa crus-galli); assay: as above
Method in brief: as §1

[4] = test system: foxtail, giant (giant foxtail, Setaria faberii); assay: as above
Method in brief: as §1

[5] = test system: ragweed (common ragweed, Ambrosia elatior); assay: as above
Method in brief: as §1

[6] = test system: pigweed (Amaranthus retroflexus); assay: as above
Method in brief: as §1

kochia (Kochia scoparia) [7] = assay: Test C greenhouse herbicide test, postemergence
Method in brief: (§2)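 Seedlings are raised in pots of peat moss–vermiculite medium with starter nutrients, then receive postemergence test chemical at the 1- to 4-leaf stage. They are kept in the greenhouse 13 to 15 d and scored visually versus controls, 0 meaning no effect and 100 complete control.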

[8] = test system: chickweed (common chickweed, Stellaria media); assay: Test C greenhouse herbicide test, postemergence
Method in brief: as §2

[9] = test system: oat, wild (wild oat, Avena fatua); assay: Test C greenhouse herbicide test, postemergence
Method in brief: as §2

[10] = Postemergence, 125 g ai/ha, 0 to 100 scale where 0 is no effect and 100 is complete control
[11] = Postemergence, 500 g ai/ha, 0 to 100 scale, 0 is no effect, 100 is complete control
[12] = Preemergence, 125 g ai/ha, 0 to 100 scale where 0 is no effect and 100 is complete control
[13] = Preemergence, 500 g ai/ha, 0 to 100 scale where 0 is no effect and 100 is complete control
[14] = Postemergence, 125 g ai/ha, scale 0 to 100, 0 is no effect, 100 is complete control
[15] = Postemergence, 250 g ai/ha, scale 0 to 100, 0 no effect, 100 complete control, 13 to 15 d
[16] = postemergence, 62 g ai/ha, scale 0 to 100, 0 no effect, 100 complete control
[17] = Postemergence, 31 g ai/ha, 0 to 100 scale (0 no effect, 100 complete control)
[18] = Postemergence, 125 g ai/ha, visual rating after approx. 10 d, 0 to 100 scale (0 no effect, 100 complete control)
[19] = Preemergence, 500 g ai/ha, 0 to 100 scale, 0 no effect, 100 complete control
[20] = Postemergence, 1000 g ai/ha, 0 to 100 scale, 0 is no effect, 100 is complete control
[21] = Preemergence, 1000 g ai/ha, 0 to 100 scale, 0 no effect, 100 complete control

Compound	Kochia plant response rating (kochia (Kochia scoparia) [1]; [11])	Kochia plant response rating (kochia (Kochia scoparia) [1]; [12])	Corn plant response rating (corn (Zea mays); 500 g ai/ha)	Plant response rating, Wheat [2]	Wheat plant response rating ([2]; 500 g ai/ha)	Barnyardgrass plant response rating [3, 11]	Barnyardgrass plant response rating [3, 12]	Foxtail, Giant plant response rating [4, 11]	Foxtail, Giant plant response rating [4, 12]	Ragweed plant response rating [5, 11]	Plant response rating, Kochia (kochia (Kochia scoparia) [7]; [14])	Plant response rating, Kochia (kochia (Kochia scoparia) [7]; [15])	Kochia plant response rating (kochia (Kochia scoparia) [7]; [16])	Chickweed plant response rating [8, 17]	Plant response rating, Chickweed [8, 14]	Plant response rating, Chickweed [8, 15]	Chickweed plant response rating [8, 16]	Plant response rating, Oat, Wild [9, 14]	Plant response rating, Oat, Wild [9, 15]	Oat, Wild plant response rating [9, 16]	also measured
Cc1sc2ccccc2c1-c1c(O)c(Cl)nn(C)c1=O [Compound 89]	90	70	0	0	0	80	50	80	50	90	90	100	90	90	100	100	95	30	40	10	Plant response rating, Kochia (kochia (Kochia scoparia) [1]; [10]): 80; Plant response rating, Kochia (kochia (Kochia scoparia) [1]; [13]): 90; Plant response rating, Corn (corn (Zea mays); 0 to 100 scale where 0 is no effect and 100 is complete control): 0; Plant response rating, Barnyardgrass [3, 10]: 40; Plant response rating, Barnyardgrass [3, 13]: 60; Plant response rating, Foxtail, Giant [4, 10]: 70; Plant response rating, Foxtail, Giant [4, 13]: 80; Plant response rating, Ragweed [5, 10]: 80; Ragweed plant response rating [5, 12]: 80; Plant response rating, Ragweed [5, 13]: 90; Plant response rating, Pigweed [6, 10]: 80; Pigweed plant response rating [6, 11]: 90; Pigweed plant response rating [6, 12]: 100; Plant response rating, Pigweed [6, 13]: 100
Cc1ccc2ccccc2c1-c1c(O)c(I)nn(C)c1=O [Compound 29]	90	60	40	40	60	80	70	90	80	100	75	85	60	95	100	100	95	85	95	55	Plant response rating, Kochia (kochia (Kochia scoparia) [1]; [18]): 80; Plant response rating, Kochia (kochia (Kochia scoparia) [1]; [19]): 100; Plant response rating, Corn (corn (Zea mays); visual rating after approx. 10 d, 0 to 100 scale (0 no effect, 100 complete control)): 10; Plant response rating, Barnyardgrass [3, 18]: 70; Plant response rating, Barnyardgrass [3, 19]: 90; Plant response rating, Foxtail, Giant [4, 18]: 80; Plant response rating, Foxtail, Giant [4, 19]: 90; Plant response rating, Ragweed [5, 18]: 90; Ragweed plant response rating [5, 12]: 90; Plant response rating, Ragweed [5, 19]: 90; Plant response rating, Pigweed [6, 18]: 90; Pigweed plant response rating [6, 11]: 100; Pigweed plant response rating [6, 12]: 100; Plant response rating, Pigweed [6, 19]: 100; Kochia plant response rating (kochia (Kochia scoparia) [7]; [17]): 60; Oat, Wild plant response rating [9, 17]: 60
CCc1ccc2ccccc2c1-c1c(O)c(C)nn(C)c1=O [Compound 32]	–	–	–	–	–	–	–	–	–	–	90	95	50	90	100	100	95	100	100	90	Kochia plant response rating (kochia (Kochia scoparia) [1]; [20]): 100; Plant response rating, Kochia (kochia (Kochia scoparia) [1]; [21]): 100; Corn plant response rating (corn (Zea mays); 1000 g ai/ha): 50; Wheat plant response rating ([2]; 1000 g ai/ha): 100; Barnyardgrass plant response rating [3, 20]: 90; Plant response rating, Barnyardgrass [3, 21]: 100; Foxtail, Giant plant response rating [4, 20]: 90; Plant response rating, Foxtail, Giant [4, 21]: 100; Ragweed plant response rating [5, 20]: 100; Plant response rating, Ragweed [5, 21]: 90; Pigweed plant response rating [6, 20]: 100; Plant response rating, Pigweed [6, 21]: 100; Kochia plant response rating (kochia (Kochia scoparia) [7]; [17]): 50; Oat, Wild plant response rating [9, 17]: 70
